Test results taken from PMC7012010, “Synthesis and biological evaluation of 2-styrylquinolines as antitumour agents and EGFR kinase inhibitors: molecular docking study” (Journal of Enzyme Inhibition and Medicinal Chemistry, 2017).
≈ marks a conversion by molar mass, not a printed value.

How the values were obtained:
HepG2 = test: MTT antitumour (cytotoxicity) assay, HepG2; assay type: cell-based; details: Homo sapiens, HepG2, HepG2 cell line, 50% inhibition of tumour cell proliferation, read-out: In vitro cytotoxicity IC50
Experimental: (§1) The designed compounds were evaluated for their in vitro antitumour effect using the standard MTT method against two human tumour cell lines, namely, HepG2 and HCT116[45–48]. The quantitative evaluation of the cytotoxicity was performed using tetrazolium salt MTT (3-(4,5-dimethyl-2-thiazolyl)-2,5-diphenyl-2 H-tetrazolium bromide) assay. The cytotoxic activity was expressed as the concentration of the compound that caused 50% growth inhibition (IC50, mean ± SEM) compared with the growth of untreated cells.

HCT116 = test: MTT antitumour (cytotoxicity) assay, HCT116; assay type: cell-based; details: Homo sapiens, HCT-116, HCT116 cell line, 50% inhibition of tumour cell proliferation, read-out: In vitro cytotoxicity IC50
Experimental: as §1

EGFR kinase = EGFR kinase (Homo sapiens, UniProt P00533); test: ELISA-based EGFR-TK kinase inhibition assay; assay type: biochemical; details: n = 3, read-out: Enzymatic IC50 toward EGFR kinase
EGFR kinase, sequence (P00533 25-1210): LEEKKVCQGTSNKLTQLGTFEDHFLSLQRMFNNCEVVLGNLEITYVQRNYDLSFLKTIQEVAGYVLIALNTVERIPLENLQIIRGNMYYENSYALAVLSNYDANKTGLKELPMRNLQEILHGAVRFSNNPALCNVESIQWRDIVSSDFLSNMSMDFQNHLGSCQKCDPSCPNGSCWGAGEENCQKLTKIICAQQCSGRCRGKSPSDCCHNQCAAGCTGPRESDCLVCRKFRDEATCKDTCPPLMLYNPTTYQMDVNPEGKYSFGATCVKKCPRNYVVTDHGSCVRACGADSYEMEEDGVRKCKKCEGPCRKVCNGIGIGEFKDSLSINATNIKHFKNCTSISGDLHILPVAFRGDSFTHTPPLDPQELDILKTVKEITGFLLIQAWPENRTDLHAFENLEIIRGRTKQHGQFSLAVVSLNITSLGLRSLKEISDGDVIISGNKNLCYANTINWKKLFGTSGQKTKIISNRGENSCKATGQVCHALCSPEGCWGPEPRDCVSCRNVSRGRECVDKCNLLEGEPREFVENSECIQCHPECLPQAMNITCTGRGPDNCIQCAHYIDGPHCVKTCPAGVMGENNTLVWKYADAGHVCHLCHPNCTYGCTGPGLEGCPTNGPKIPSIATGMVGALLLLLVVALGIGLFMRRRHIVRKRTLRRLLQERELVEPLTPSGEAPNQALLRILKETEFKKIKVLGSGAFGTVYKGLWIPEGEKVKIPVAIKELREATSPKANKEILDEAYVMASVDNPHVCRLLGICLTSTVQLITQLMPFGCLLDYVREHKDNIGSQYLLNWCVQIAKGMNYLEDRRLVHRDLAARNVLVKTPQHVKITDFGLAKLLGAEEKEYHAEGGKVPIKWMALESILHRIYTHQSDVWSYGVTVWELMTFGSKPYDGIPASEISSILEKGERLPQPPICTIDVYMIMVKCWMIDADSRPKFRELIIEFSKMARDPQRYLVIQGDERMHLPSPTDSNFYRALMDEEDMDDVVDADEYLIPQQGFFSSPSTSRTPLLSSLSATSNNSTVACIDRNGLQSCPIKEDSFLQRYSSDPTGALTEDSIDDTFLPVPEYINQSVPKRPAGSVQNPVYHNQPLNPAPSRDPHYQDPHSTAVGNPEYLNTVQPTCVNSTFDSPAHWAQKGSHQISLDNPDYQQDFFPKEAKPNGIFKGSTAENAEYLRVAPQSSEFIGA
Experimental: EGFR kinase activity was determined via enzyme-linked immunosorbent assay (ELISA) in 96-well plates. The EGFR kinase activity for each compound were expressed as IC50 values. Data were represented as mean ± SD from three independent experiments, and differences between groups were considered statistically significant at p < .05.
The mechanism of antitumour activity of the target compounds was studied using ELISA-based EGFR-TK assay.

Structure (SMILES)	IC50 (HepG2) [µg/mL]	IC50 (HCT116) [µg/mL]	IC50 (EGFR kinase) [µM]	melting point [°C]
CCOC(=O)C(C#N)C(=O)c1cc(C=Cc2ccc(N(C)C)cc2)nc2ccc(Br)cc12 (centres unmarked) [Compound 8a, Ethyl 3-(6-bromo-2-(4-(dimethylamino)styryl)quinolin-4-yl)-2-cyano-3-oxopropanoate]	26.2 ± 1.79 (≈ 53.2 µM)	16 ± 0.88 (≈ 32.5 µM)	16	> 300
CCOC(=O)C(C#N)C(=O)c1cc(C=Cc2ccc(N(C)C)cc2)nc2ccc(C)cc12 (centres unmarked) [Compound 8b, Ethyl 2-cyano-3-(2-(4-(dimethylamino)styryl)-6-methylquinolin-4-yl)-3-oxopropanoate]	43.7 ± 2.66 (≈ 102 µM)	52.6 ± 3.92 (≈ 123 µM)		> 300
CN(C)c1ccc(/C=C/c2cc(C(=O)O)c3cc(Br)ccc3n2)cc1 [Compound 3a]	9.8 ± 0.2 (≈ 24.7 µM)	9 ± 0.35 (≈ 22.7 µM)	2.23	
CN(C)c1ccc(C=Cc2cc(C(=O)NNc3ccccc3)c3cc(Br)ccc3n2)cc1 [Compound 7a, 6-Bromo-2-(4-(dimethylamino)styryl)-N'-phenylquinoline-4-carbohydrazide]	46.1 ± 2.81 (≈ 94.6 µM)	49.7 ± 3 (≈ 102 µM)		232
O=c1[nH]cc(F)c(=O)[nH]1 [Compound 5-FU, 5-fluorouracil, reference compound]	7.9 ± 0.17 (≈ 60.7 µM)	5.3 ± 0.32 (≈ 40.7 µM)		
CC(=O)C(C(C)=O)C(=O)c1cc(C=Cc2ccc(N(C)C)cc2)nc2ccc(Br)cc12 [Compound 9a, 3-(6-Bromo-2-(4-(dimethylamino)styryl)quinoline-4-carbonyl)pentane-2,4-dione]	65.4 ± 3.18 (≈ 136 µM)	57.3 ± 3.07 (≈ 120 µM)		> 300
CN(C)c1ccc(C=Cc2cc(C(=O)Oc3ccc(C=O)cc3)c3cc(Br)ccc3n2)cc1 [Compound 6a, 4-Formylphenyl 6-bromo-2-(4-(dimethylamino)styryl)quinoline-4-carboxylate]	82.9 ± 4.64 (≈ 165 µM)	96.6 ± 5.4 (≈ 193 µM)		242
Cc1ccc2nc(C=Cc3ccc(N(C)C)cc3)cc(C(=O)NNc3ccccc3)c2c1 [Compound 7b, 2-(4-(Dimethylamino)styryl)-6-methyl-N'-phenylquinoline-4-carbohydrazide]	72.8 ± 3.82 (≈ 172 µM)	61.4 ± 3.76 (≈ 145 µM)		228
CC(=O)C(C(C)=O)C(=O)c1cc(C=Cc2ccc(N(C)C)cc2)nc2ccc(C)cc12 [Compound 9b, 3-(2-(4-(Dimethylamino)styryl)-6-methylquinoline-4-carbonyl)pentane-2,4-dione]	> 100	93.1 ± 5.64 (≈ 225 µM)		> 300
Cc1ccc2nc(C=Cc3ccc(N(C)C)cc3)cc(C(=O)O)c2c1 [Compound 3b, 2–(4-(Dimethylamino)styryl)-6-methylquinoline-4-carboxylic acid]	17.2 ± 1.04 (≈ 51.7 µM)	14.8 ± 0.89 (≈ 44.5 µM)	8.01	275
CN(C)c1ccc(C=Cc2cc(-c3nnc(N)s3)c3cc(Br)ccc3n2)cc1 [Compound 4a, 5-(6-Bromo-2–(4-(dimethylamino)styryl)quinolin-4-yl)-1,3,4-thiadiazol-2-amine]	9 ± 0.19 (≈ 19.9 µM)	14.2 ± 0.67 (≈ 31.4 µM)	8.78	223
Cc1ccc2nc(C=Cc3ccc(N(C)C)cc3)cc(C(=O)Oc3ccc(C=O)cc3)c2c1 [Compound 6b, 4-Formylphenyl 2-(4-(dimethylamino)styryl)-6-methylquinoline-4-carboxylate]	> 100	> 100		248
CN(C)C/C=C/C(=O)Nc1cc2c(Nc3ccc(F)c(Cl)c3)ncnc2cc1O[C@H]1CCOC1 [Afatinib, afatinib, reference compound]	5.4 ± 0.25 (≈ 11.1 µM)	11.4 ± 1.26 (≈ 23.5 µM)		
Cc1ccc2nc(C=Cc3ccc(N(C)C)cc3)cc(-c3nnc(N)s3)c2c1 [Compound 4b, 5-(2-(4-(Dimethylamino)styryl)-6-methylquinolin-4-yl)-1,3,4-thiadiazol-2-amine]	7.7 ± 0.15 (≈ 19.9 µM)	8.8 ± 0.26 (≈ 22.7 µM)	1.11	226
